Source: US7119217B2, “Tri(alkylcarboxylato)gallium (III) products and pharmaceutical compositions containing them” (Genta Incorporated, priority 2002, dated 2006)

How the values were obtained:
Caco-2 monolayer cells = experiment: Caco-2 apical to basolateral (A to B) absorption/transport assay; conditions: for % Absorbed: Caco-2 monolayer, 37° C., 5% CO2; for % Absorbed / Trsp: apical to basolateral, 2 hours incubation; for Trsp: Caco-2 transport rate; for Ratio (Caco-2 transport ratio): ratio of the transport rate to the transport rate of the reference compound mannitol
Text: (§1) Values for Caco-2 transport are also expressed herein as transport ratios that represent the ratio of the transport rate for the proband (e.g. tri(alkylcarboxylato) gallium(III) compound) to the transport rate of a reference compound. Mannitol was the reference compound used in the calculation of the Caco-2 transport ratios discussed herein.
(§2) The evaluation protocol of the apical to basolateral (A to B) absorption of a test article in Caco-2 monolayer cells is known to those of skill in the art as follows.
(§3) Caco-2 cells are plated in individual Transwells® in 24-well tissue culture plates and cultured for 3 days to establish the cultures. After 3 days, the cells are tested for transepithelial electrical resistance (TEER) as a measure of the formation of tight junctions between cells. Only cells with a TEER equal to or greater than about 330 Ω·cm^2 cm^2 are used. The proband or the control article (reference) is applied to the apical side of Caco-2 cells and incubated for 2 hours (37° C., 5% CO2). At t=2 hr, the media in each well are collected and stored until later analysis. Aliquots of the dosing solution are retained for analysis along with the samples.
(§4) For test samples, the analysis is repeated three times while the N value for all the control groups is six. The controls are [^3H]propranolol for fast transport and [^3H]mannitol for slow transport.
(§5) The gallium product proband and dosing solution samples are analyzed by inductive coupled plasma optical emission spectrometry (ICP-OCP) to measure gallium concentration. Any non-gallium test articles and dosing solution samples are analyzed by HPLC. Positive controls are analyzed using scintillation counting.

[1] = as above; conditions: human, Caco-2
Text: as §1, §2, §3, §4, §5

Row | Compound | % Absorbed (Caco-2 monolayer cells) | Trsp (Caco-2 monolayer cells) | Ratio (Caco-2 transport ratio) (Caco-2 monolayer cells) | Papp A→B at 2 h [1]
1 | Cc1occc(=O)c1[O-].Cc1occc(=O)c1[O-].Cc1occc(=O)c1[O-].[Ga+3] [Gallium Maltolate] | 24.793% | 107.610 nm/s | 9.5 | 
2 | OC[C@@H](O)[C@@H](O)[C@H](O)[C@H](O)CO [Mannitol] | 2.603% |  | 1 | 1.13 ×10⁻⁶ cm/s
3 | CC(C)NCC(O)COc1cccc2ccccc12 (stereo not drawn) [Propranalol] | 24.118% | 104.679 nm/s | 9.3 | 
4 | Tri(octanoato) Gallium (III) Product [Example 1] | 9.890% | 42.930 nm/s | 3.8 | 
5 | Tri(palmitato) Gallium (III) Product [Example 2] | 72.000% | 312.500 nm/s | 27.7 | 
6 | Tri(palmitato) Gallium (III) Product [Example 3] | 31.579% | 137.060 nm/s | 12.1 | 
